Results taken from US8124624B2, “Substituted sulfonamide compounds” (Gruenenthal GmbH, priority 2008, dated 2012).

How the values were obtained:
[1] = biological target: T1, human B1R (Homo sapiens, UniProt P46663); test: FLIPR Ca2+ influx assay, B1R antagonism, human (hB1R CHO K1 cells); assay type: cell-based; details: test substance 10 μM, CHO K1 cells stably transfected with human B1R, agonist Lys-Des-Arg9-bradykinin at EC80, % inhibition compared with maximum achievable inhibition; for inhibition at 10 µM: read-out: B1R antagonism, human [10 μM] % inhibition
T1 construct: expressed in transfected cells; host or cells: CHO K1 cells (hB1R cells)
T1 sequence (P46663 1-353): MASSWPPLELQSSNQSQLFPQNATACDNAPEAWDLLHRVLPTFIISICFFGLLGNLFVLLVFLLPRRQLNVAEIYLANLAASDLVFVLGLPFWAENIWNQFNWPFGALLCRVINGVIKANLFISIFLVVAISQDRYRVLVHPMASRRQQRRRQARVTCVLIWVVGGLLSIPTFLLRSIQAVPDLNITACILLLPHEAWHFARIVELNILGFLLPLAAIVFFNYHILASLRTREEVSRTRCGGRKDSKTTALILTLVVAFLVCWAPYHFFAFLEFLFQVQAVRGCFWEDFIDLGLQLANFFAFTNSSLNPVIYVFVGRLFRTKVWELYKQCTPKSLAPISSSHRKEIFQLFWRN
Procedure: The agonistic or antagonistic action of substances can be quantified on the bradykinin receptor 1 (B1R) of the species human and rat using ectopically expressing cell lines (CHO K1 cells) and with the aid of a Ca^2+-sensitive dye (Fluo-4) using a fluorescent imaging plate reader (FLIPR). The indication in % activation is based on the Ca^2+ signal after addition of Lys-Des-Arg^9-bradykinin (0.5 nM) or Des-Arg^9-bradykinin (100 nM). Antagonists lead to suppression of the Ca^2+ influx after the addition of the agonist. % Inhibition compared with the maximum achievable inhibition is indicated.
The agonistic or antagonistic action of substances can be determined on the bradykinin receptor 1 (B1R) of the species human and rat using the following assay. According to this assay, the Ca^2+ influx through the channel is quantified with the aid of a Ca^2+-sensitive dye (Fluo-4 type, Molecular Probes Europe BV, Leiden, Netherlands) using a Fluorescent Imaging Plate Reader (FLIPR, Molecular Devices, Sunnyvale, USA).
Chinese hamster ovary cells (CHO K1 cells) which have been stably transfected with the human B1R gene (hB1R cells) or with the B1R gene of the rat (rB1R cells) are used. For functional studies, the cells are plated out on black 96-well plates having a clear base (BD Biosciences, Heidelberg, Germany or Greiner, Frickenhausen, Germany) in a density of 20,000-35,000 cells/well. The cells are incubated overnight at 37° C. and with 5% CO2 in culture medium (hB1R cells: Nutrient Mixture Ham's F12, Gibco Invitrogen GmbH, Karlsruhe, Germany or DMEM, Sigma-Aldrich, Taufkirchen, Germany; rB1R cells: D-MEM/F12, Gibco Invitrogen GmbH, Karlsruhe, Germany), with 10 vol. % FBS (fetal bovine serum, Gibco Invitrogen GmbH, Karlsruhe, Germany or PAN Biotech GmbH, Aidenbach, Germany).
On the following day, the cells are loaded for 60 minutes at 37° C. with 2.13 μM Fluo-4 (Molecular Probes Europe BV, Leiden, Netherlands) in HBSS buffer (Hank's buffered saline solution, Gibco Invitrogen GmbH, Karlsruhe, Germany) […] (Sigma-Aldrich, Taufkirchen, Germany) and 10 mM HEPES (Sigma-Aldrich, Taufkirchen, Germany). The plates are then washed twice with HBSS buffer, and HBSS buffer additionally containing 0.1% BSA (bovine serum albumin; Sigma-Aldrich, Taufkirchen, Germany), 5.6 mM glucose and 0.05% gelatin (Merck KGaA, Darmstadt, Germany) is added to the plates. After incubation for a further 20 minutes at room temperature, the plates are inserted into the FLIPR for Ca^2+ measurement.
Alternatively, washing is carried out with buffer A (15 mM HEPES, 80 mM NaCl, 5 mM KCl, 1.2 mM CaCl2, 0.7 mM MgSO4, 2 g/l glucose, 2.5 mM probenecid) followed by loading with buffer A with added 2.5 μM Fluo-4 and 0.025% Pluronic F127 (Sigma-Aldrich, Taufkirchen, Germany). The cells are then washed twice with buffer A and incubated for 30 minutes at room temperature with buffer A additionally containing 0.05% BSA and 0.05% gelatin and are then inserted into the FLIPR for Ca^2+ measurement.
The Ca^2+-dependent fluorescence is measured before and after the addition of substances (λex=488 nm, λem=540 nm). Quantification is carried out by measuring the highest fluorescence intensity (FC, fluorescence counts) over time.
The FLIPR protocol consists of two substance additions. Test substances (10 μM) are first pipetted onto the cells and the Ca^2+ influx is compared with the control (hB1R: Lys-Des-Arg^9-bradykinin >=50 nM; rB1R: Des-Arg^9-bradykinin 10 μM). This gives the activation in %, based on the Ca^2+ signal after addition of Lys-Des-Arg^9-bradykinin (>=50 nM) or Des-Arg^9-bradykinin (10 μM). After 10-20 minutes' incubation, Lys-Des-Arg^9-bradykinin (hB1R) or Des-Arg^9-bradykinin (rB1R) is applied in the concentration of the EC80, and the influx of Ca^2+ is likewise determined. Antagonists lead to suppression of the Ca^2+ influx. The % inhibition compared with the maximum achievable inhibition is calculated. […]

[2] = biological target: T2, B1R of the rat (Rattus norvegicus, UniProt P97583); test: FLIPR Ca2+ influx assay, B1R antagonism, rat (rB1R CHO K1 cells); assay type: cell-based; details: test substance 10 μM, CHO K1 cells stably transfected with rat B1R, agonist Des-Arg9-bradykinin at EC80, % inhibition compared with maximum achievable inhibition; for inhibition at 10 µM: read-out: B1R antagonism, rat [10 μM] % inhibition
T2 construct: expressed in transfected cells; host or cells: CHO K1 cells (rB1R cells)
T2 sequence (P97583 1-337): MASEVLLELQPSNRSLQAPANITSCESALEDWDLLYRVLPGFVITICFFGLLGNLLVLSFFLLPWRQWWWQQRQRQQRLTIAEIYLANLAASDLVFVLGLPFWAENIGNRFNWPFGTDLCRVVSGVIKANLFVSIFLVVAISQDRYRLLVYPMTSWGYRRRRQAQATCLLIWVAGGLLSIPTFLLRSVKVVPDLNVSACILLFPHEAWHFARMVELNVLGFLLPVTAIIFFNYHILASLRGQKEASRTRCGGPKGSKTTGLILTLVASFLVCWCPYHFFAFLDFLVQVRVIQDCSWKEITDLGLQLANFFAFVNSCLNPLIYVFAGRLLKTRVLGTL
Summary of the method: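 CHO K1 cells stably expressing human or rat B1R were loaded with Fluo-4, and Ca^2+ fluorescence was read on a FLIPR. After 10–20 min with test substance, agonist was added at EC80: Lys-Des-Arg^9-bradykinin for hB1R, Des-Arg^9-bradykinin for rB1R. % inhibition is relative to maximal inhibition; IC50 from multiple concentrations, n=2–3, N≥2.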

SMILES	inhibition at 10 µM [1]	inhibition at 10 µM [2]	B1R antagonism, human [10 μM] % inhibition [1]	B1R antagonism, rat [10 μM] % inhibition [2]
O=C(COCC1CCc2ccccc2N1S(=O)(=O)c1ccc(Cl)c(Cl)c1)N1CCC(CCCN2CCCC2)(c2cccnc2)CC1 (centres unmarked) [Example 18, 2-((1-(3,4-Dichlorophenylsulfonyl)-1,2,3,4-tetrahydroquinolin-2-yl)methoxy)-1-(4-(pyridin-3-yl)-4-(3-(pyrrolidin-1-yl)propyl)piperidin-1-yl)ethanone]	62%	102%		
Cc1cc(S(=O)(=O)N2CCCCC2CCC(=O)N2CCC(CCCN(C)C)(c3cccnc3)CC2)c(C)cc1Cl (centres unmarked) [Example 19, 3-(1-(4-Chloro-2,5-dimethylphenylsulfonyl)piperidin-2-yl)-1-(4-(3-(dimethylamino)propyl)-4-(pyridin-3-yl)piperidin-1-yl)propan-1-one]	82%	98%		
CN(C)CCCC1(c2cccnc2)CCN(C(=O)CC(NS(=O)(=O)c2ccc3ccccc3c2)c2ccccc2)CC1 (centres unmarked) [Example 20, N-(3-(4-(3-(Dimethylamino)propyl)-4-(pyridin-3-yl)piperidin-1-yl)-3-oxo-1-phenylpropyl)naphthalene-2-sulfonamide]	57%	94%		
CN(C)CCCC1(c2cccnc2)CCN(C(=O)COCC2CCc3ccccc3N2S(=O)(=O)c2ccc(Cl)c(Cl)c2)CC1 (centres unmarked) [Example 21, 2-((1-(3,4-Dichlorophenylsulfonyl)-1,2,3,4-tetrahydroquinolin-2-yl)methoxy)-1-(4-(3-(dimethylamino)propyl)-4-(pyridin-3-yl)piperidin-1-yl)ethanone]	56%	98%		
CN(C)CCCC1(c2cccnc2)CCN(C(=O)CC2CCCCN2S(=O)(=O)c2cccc(C(F)(F)F)c2)CC1 (centres unmarked) [Example 24, 1-(4-(3-(Dimethylamino)propyl)-4-(pyridin-3-yl)piperidin-1-yl)-2-(1-(3-(trifluoromethyl)phenylsulfonyl)piperidin-2-yl)ethanone]	38%	60%		
COc1cc(C)c(S(=O)(=O)N2CCCC[C@H]2COCC(=O)N2CCC(CN3CCCC3)(c3cccnc3)CC2)c(C)c1 [Example 25, (S)-2-((1-(4-Methoxy-2,6-dimethylphenylsulfonyl)piperidin-2-yl)methoxy)-1-(4-(pyridin-3-yl)-4-(pyrrolidin-1-ylmethyl)piperidin-1-yl)ethanone]	97%	63%		

More lines, now with the values ahead:

inhibition at 10 µM [1]	inhibition at 10 µM [2]	B1R antagonism, human [10 μM] % inhibition [1]	B1R antagonism, rat [10 μM] % inhibition [2]	SMILES
98%	102%			COc1cc(C)c(S(=O)(=O)N2CCCCC2COCC(=O)N2CCC(CCCN(C)C)(c3cccnc3)CC2)c(C)c1 (centres unmarked) [Example 22, 1-(4-(3-(Dimethylamino)propyl)-4-(pyridin-3-yl)piperidin-1-yl)-2-((1-(4-methoxy-2,6-dimethylphenylsulfonyl)piperidin-2-yl)methoxy)ethanone]
100%	101%			COc1cc(C)c(S(=O)(=O)N(C)CCOCC(=O)N2CCC(CCCN(C)C)(c3cccnc3)CC2)c(C)c1 [Example 23, N-(2-(2-(4-(3-(Dimethylamino)propyl)-4-(pyridin-3-yl)piperidin-1-yl)-2-oxoethoxy)ethyl)-4-methoxy-N,2,6-trimethylbenzenesulfonamide]
		100%	103%	COc1cc(C)c(S(=O)(=O)N2CCCCC2COCC(=O)N2CCC(CCCN3CCCC3)(c3cccnc3)CC2)c(C)c1 (centres unmarked) [Example 26, 2-[[1-[(4-Methoxy-2,6-dimethyl-phenyl)sulfonyl]-piperidin-2-yl]-methoxy]-1-[4-pyridin-3-yl-4-(3-pyrrolidin-1-yl-propyl)-piperidin-1-yl]-ethanone]
		100%	102%	COc1cc(C)c(S(=O)(=O)N2CCCCC2COCC(=O)N2CCC(CCCN3CCCC3)(c3cccnc3)CC2)c(C)c1 (centres unmarked) [Example 27, 2-[[1-[(4-Methoxy-2,6-dimethyl-phenyl)sulfonyl]-piperidin-2-yl]-methoxy]-1-[4-pyridin-3-yl-4-(3-pyrrolidin-1-yl-propyl)-piperidin-1-yl]-ethanone]
		100%	101%	COc1cc(C)c(S(=O)(=O)N(C)CCOCC(=O)N2CCC(CCCN3CCCC3)(c3cccnc3)CC2)c(C)c1 [Example 29, 4-Methoxy-N,2,6-trimethyl-N-[2-[2-oxo-2-[4-pyridin-3-yl-4-(3-pyrrolidin-1-yl-propyl)-piperidin-1-yl]-ethoxy]-ethyl]-benzenesulfonic acid amide]
100%	101%			COc1cc(C)c(S(=O)(=O)N(C)CCOCC(=O)N2CCC(CCCN3CCCC3)(c3cccnc3)CC2)c(C)c1C [Example 31, 4-Methoxy-N,2,3,6-tetramethyl-N-[2-[2-oxo-2-[4-pyridin-3-yl-4-(3-pyrrolidin-1-yl-propyl)-piperidin-1-yl]-ethoxy]-ethyl]-benzenesulfonic acid amide]
100%	103%			COc1cc(C)c(S(=O)(=O)N(CCOCC(=O)N2CCC(CCCN3CCCC3)(c3cccnc3)CC2)Cc2ccccc2)c(C)c1 [Example 37, N-Benzyl-4-Methoxy-2,6-dimethyl-N-[2-[2-oxo-2-[4-pyridin-3-yl-4-(3-pyrrolidin-1-yl-propyl)-piperidin-1-yl]-ethoxy]-ethyl]-benzenesulfonic acid amide]
